{
  "source": "patent US20220401408A1",
  "about": "“COMPOSITIONS AND METHODS FOR RESCUING RETINAL AND CHOROIDAL STRUCTURE AND FUNCTION” (AUCKLAND UNISERVICES LIMITED, priority 2019, published 2022)",
  "system": "hyperglycemic rats",
  "test": "OCT in hyperglycemic rat diabetic retinopathy model (aneurysms, layer thickness)",
  "assay_type": "in vivo, SD rats (spontaneously hyperglycemic strain)",
  "text": "Hyperglycemic Rat Diabetic Retinopathy Model—A spontaneously hyperglycemic strain of SD rats, which developed clinical signs of diabetic retinopathy within 4 weeks of birth were identified and isolated within the Vernon Jansen Animal Research Unit, Faculty of Medical and Health Sciences at the University of Auckland. The identification of these rats presenting with hyperglycemia and microaneurysms provided an opportunity to treat a complex, chronic disease model and assess the treatment effect based upon objective, measurable endpoints, despite lacking precise information on the etiology of the disease. Inbreeding was carried out over three generations and eyes were screened for abnormalities between 4-8 weeks of age. Additional information about these rats is presented as supplementary information. Glucose levels were tested in non-fasting rats (Lee J J, Yi H Y, Yang J W, Shin J S, Kwon J H, Kim C W. Characterization of streptozotocin-induced diabetic rats and pharmacodynamics of insulin formulations. Biosci Biotechnol Biochem. 2003; 67:2396-401) using a Freestyle Optium Glucometer (Abbott Laboratories Ltd., UK) and Freestyle Optium glucose strips.\nTen rats per group were the selected (10 normal SD and 10 hyperglycemic) grown to 5 weeks of age and assessed using OCT and ERG. The hyperglycemic rat group was then split into two subgroups of five, with one subgroup fed tonabersat once daily for 14 days from weeks 5 to 7 at a low dose level of 0.28 mg/kg in 0.5 g peanut butter, with the other subgroup fed 0.5 g peanut butter only. All animals were assessed again using ERG and OCT at 8 weeks of age before euthanizing animals and removing the eyes for immunohistochemical analysis. Data groups were randomized prior to the statistical comparison. In summary, normal SD and hyperglycemic rats were analyzed with OCT and ERG at 5 weeks of age; the hyperglycemic rats were then split into two groups and fed the vehicle or tonabersat for 14 days during weeks 6 and 7 of age. At week 8, animals were again assessed with ERG and OCT and tissues collected for immunohistochemical analysis. Four tonabersat-treated rats were, however, left until 3 months of age before final ERG and OCT and tissue collection.\nEvans Blue Dye Assessment of Vessel Leak—To investigate whether micro- and macro-aneurysms in the hyperglycemic rat retinas (observed using OCT) reflect sites of vessel leak, rats were perfused at the age of 3 months with Evans Blue dye as previously described. Cai S, Yang Q, Hou M, Han Q, Zhang H, Wang J, et al. Alpha-Melanocyte-Stimulating Hormone Protects Early Diabetic Retina from Blood-Retinal Barrier Breakdown and Vascular Leakage via MC4R. Cell Physiol Biochem. 2018; 45:505-22. Briefly, Evans Blue dye (30 mg/ml; Sigma-Aldrich, USA) was dissolved in normal saline and filtered. The dye was delivered as an injection into the rat-tail vein of normal SD and hyperglycemic rats at 45 mg/kg and allowed to circulate for 2 hours. Eyes were enucleated while rats were under deep anesthesia and an intracardial injection of 3M KCl was then administered rapidly to euthanize the animals. The posterior segment cups were fixed whole in 4% paraformaldehyde for 30 min and the retinas removed and laid flat. Evans Blue was stimulated at 559 nm wavelength and visualized by its red fluorescence emission using Olympus FluoView FV1000 (Olympus Corporation, Tokyo, Japan). […]",
  "key": {"[1]": {"details": "0.28 mg/kg once daily 14 days, week 8"}},
  "data": [
    {"smiles": "CC(=O)c1ccc2c(c1)[C@H](NC(=O)c1ccc(F)c(Cl)c1)[C@H](O)C(C)(C)O2", "note": "[tonabersat, N-[(3S,4S)-6-acetyl-3-hydroxy-2,2-dimethyl-3,4-dihydrochromen-4-yl]-3-chloro-4-fluorobenzamide]", "values": [
      {"measurement": "number and size of microaneurysms after treatment", "setting": "[1]", "value": "differences"},
      {"measurement": "retinal layer thickness (INL or ONL) or thickness of the choroid, treated vs untreated", "setting": "[1]", "value": "no significant difference"},
      {"measurement": "hyperreflective spot on OCT after treatment", "setting": "0.28 mg/kg once daily for 14 days, 8 weeks", "value": "barely visible"},
      {"measurement": "clinical signs, including the presence of aneurysms", "setting": "DR model, daily treatment for two weeks", "value": "reduced"},
      {"measurement": "micro- and macro-aneurysms compared to placebo controls", "setting": "oral, DR model", "value": "regression"}
    ]}
  ]
}
